Assay: Maximum plasma concentration of octreotide in rats after endoscopic administration
Settings: same administered octreotide level (5 mg)
Protocol: A control test was conducted on seven control rats. A 5 mg solution of octreotide was endoscopically administered to the control rats, and the resulting maximum plasma concentrations of octreotide in the control rats were measured.
Octreotide was administered to three test rats using techniques that were in accordance with embodiments of the present invention. A drug layer of 5 mg of octreotide was dried onto the outer layer of each of three capsules, and the capsules were endoscopically placed in the small intestine of the three test rats. The resulting maximum plasma concentrations of octreotide in the test rats were measured.

## C[C@@H](O)[C@@H]1NC(=O)[C@H](CCCCN)NC(=O)[C@@H](Cc2c[nH]c3ccccc23)NC(=O)[C@H](Cc2ccccc2)NC(=O)[C@@H](NC(=O)[C@H](N)Cc2ccccc2)CSSC[C@@H](C(=O)N[C@H](CO)[C@@H](C)O)NC1=O [octreotide]
  resultant blood concentration of octreotide, test group (capsule surface) versus control group (solution): significantly higher
